Drawing on US11267825B2 (AICURIS GMBH & CO. KG, priority 2017, dated 2022), this text covers EC50, CC50 and IC50 for 26 compounds.

Read-outs that look alike come from different tables or passages of the source.

One data set has as its system HBV. Kind of data set: Determination of HBV DNA from the supernatants of HepAD38 cells (anti-HBV activity). Type of data set: cell-based, hepatitis B virus. Conditions: HBV DNA in HepAD38 supernatant at day 6, read-out: Cell Activity (EC50). The essentials: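 EC50 values were obtained by non-linear regression of HBV DNA copy numbers measured by qPCR against pCH-9/3091 plasmid standards. The DNA came from filtered supernatants collected on day 6. Before that, tetracycline-withdrawn HepAD38 cells had been exposed to serial half-log compound dilutions, with tetracycline-treated cells as the non-producing control.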

The next data set has as its system HepAD38 cells. Description: Cell viability assay (AlamarBlue) in HepAD38 cells. To be noted: HepAD38 cells in the presence of 0.3 μg/ml tetracycline, six days incubation. Background: Resazurin is reduced to fluorescent resorufin, in cell work by metabolically active cells.
In another data set the target is HBV core protein (UniProt P03146). It is filed as biochemical. The gist of the method:
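Compounds tested at 8 concentrations in 0.5-log steps from 100, 31.6 or 10 μM against 1.0–2.0 μM BODIPY-FL-labelled Cys150 core dimers (residues 1–149), 50 mM HEPES pH 7.5. NaCl ([…] final) triggered assembly; quenching read at 6 min, 477/525 nm, with 2.5 M and 0 M NaCl as controls; EC50 by nonlinear fit.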

Where [1] appears, read: BODIPY-FL labelled core protein, assembly started with NaCl, read after 6 min; read-out: Assembly Activity (IC50).
Setting [2] is: read-out: Assembly Activity (IC50); BODIPY-FL labelled core protein, assembly started with NaCl, read after 6 min.

HBV core protein, sequence (P03146 whole entry, looked up, the tested form may be a part): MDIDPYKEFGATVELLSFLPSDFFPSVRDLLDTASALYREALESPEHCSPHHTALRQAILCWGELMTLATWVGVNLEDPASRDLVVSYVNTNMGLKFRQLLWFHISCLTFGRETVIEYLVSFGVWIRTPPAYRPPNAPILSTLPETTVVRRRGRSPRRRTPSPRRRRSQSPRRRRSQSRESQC

`O=C(c1cc2c(Cl)cc(F)cc2[nH]1)N1CCc2nc(N[C@H]3C[C@H](O)C3)sc2C1` [Example 356, (1r,3r)-3-{[5-(4-chloro-6-fluoro-1H-indole-2-carbonyl)-4H,5H,6H,7H-[1,3]thiazolo[5,4-c]pyridin-2-yl]amino}cyclobutan-1-ol]: the EC50 in the data set on HBV is less than 1 µM. The half-maximal cytotoxic concentration (CC50) in the data set with HepAD38 cells is greater than 10 µM. The IC50 at HBV core protein (setting [1]) was less than 5 µM.
Take `O=C(Nc1nc2c(s1)CN(C(=O)c1cc3ccccc3[nH]1)CC2)C1[C@H]2COC[C@@H]12` (stereo partly drawn) [Example 361, (1R,5S,6S)—N-[5-(1H-indole-2-carbonyl)-4H,5H,6H,7H-[1,3]thiazolo[5,4-c]pyridin-2-yl]-3-oxabicyclo[3.1.0]hexane-6-carboxamide]: in the data set on HBV, the concentration for a half-maximal effect (EC50) is less than 1 µM. In addition, the 50% cytotoxic concentration (CC50) in the data set on HepAD38 cells was greater than 10 µM.
Take `O=C(c1cc2c(Cl)c(F)ccc2[nH]1)N1CCc2nc(N[C@H]3C[C@H](O)C3)sc2C1` [Example 355, (1r,3r)-3-{[5-(4-chloro-5-fluoro-1H-indole-2-carbonyl)-4H,5H,6H,7H-[1,3]thiazolo[5,4-c]pyridin-2-yl]amino}cyclobutan-1-ol]: the EC50 with HBV was less than 1 µM. In addition, the half-maximal cytotoxic concentration (CC50) in the data set with HepAD38 cells is greater than 10 µM. Further, the IC50 on HBV core protein (setting [1]) is less than 5 µM.
Take “tert-butyl 4-{[5-(1H-indole-2-carbonyl)-4H,5H,6H,7H-[1,3]thiazolo[5,4-c]pyridin-2-yl]carbamoyl}piperidine-1-carboxylate [Example 384]”: the EC50 in the data set with HBV was less than 1 µM. For the same compound, in the data set with HepAD38 cells, the CC50 is greater than 10 µM.
Taken in the same sequence, the figures for “N-[5-(1H-indole-2-carbonyl)-4H,5H,6H,7H-[1,3]thiazolo[5,4-c]pyridin-2-yl]piperidine-4-carboxamide hydrochloride [Example 385]” were less than 1 µM and greater than 10 µM.
Take `O=C(c1cc2c(F)c(F)ccc2[nH]1)N1CCc2nc(N[C@H]3C[C@H](O)C3)sc2C1` [Example 377, (1r,3r)-3-{[5-(4,5-difluoro-1H-indole-2-carbonyl)-4H,5H,6H,7H-[1,3]thiazolo[5,4-c]pyridin-2-yl]amino}cyclobutan-1-ol]: the concentration for a half-maximal effect (EC50) with HBV was less than 1 µM. The cytotoxic concentration (CC50) in the data set with HepAD38 cells was greater than 10 µM.
As for `O=C(Nc1nc2c(s1)CN(C(=O)c1cc3ccccc3[nH]1)CC2)C1[C@H]2COC[C@@H]12` (stereo partly drawn) [Example 358, (1R,5S,6R)—N-[5-(1H-indole-2-carbonyl)-4H,5H,6H,7H-[1,3]thiazolo[5,4-c]pyridin-2-yl]-3-oxabicyclo[3.1.0]hexane-6-carboxamide], the concentration giving a half-maximal response (EC50) in the data set on HBV is less than 1 µM. The half-maximal cytotoxic concentration (CC50) in the data set on HepAD38 cells was greater than 10 µM. In addition, the IC50 at HBV core protein (setting [1]) was less than 5 µM.
As for `O=C(Nc1nc2c(s1)CN(C(=O)c1cc3ccccc3[nH]1)CC2)C1[C@H]2CNC[C@@H]12` (stereo partly drawn) [Example 359, (1R,5S,6R)—N-[5-(1H-indole-2-carbonyl)-4H,5H,6H,7H-[1,3]thiazolo[5,4-c]pyridin-2-yl]-3-azabicyclo[3.1.0]hexane-6-carboxamide], in the data set with HBV, the EC50 is less than 1 µM. Besides, the CC50 in the data set on HepAD38 cells is greater than 10 µM. For the same compound, on HBV core protein (setting [1]), the IC50 is less than 5 µM.
For the compound `CCc1cccc2[nH]c(C(=O)N3CCc4nc(N[C@H]5C[C@H](O)C5)sc4C3)cc12` [Example 380, (1r,3r)-3-{[5-(4-ethyl-1H-indole-2-carbonyl)-4H,5H,6H,7H-[1,3]thiazolo[5,4-c]pyridin-2-yl]amino}cyclobutan-1-ol], the concentration giving a half-maximal response (EC50) in the data set with HBV is less than 1 µM. For the same compound, the CC50 with HepAD38 cells was greater than 10 µM.
The like results for `Cc1cc(F)cc2[nH]c(C(=O)N3CCc4nc(N[C@H]5C[C@H](O)C5)sc4C3)cc12` [Example 379, (1r,3r)-3-{[5-(6-fluoro-4-methyl-1H-indole-2-carbonyl)-4H,5H,6H,7H-[1,3]thiazolo[5,4-c]pyridin-2-yl]amino}cyclobutan-1-ol] were, in that order, less than 1 µM and greater than 10 µM.
For the compound `O=C(Nc1nc2c(s1)CN(C(=O)c1cc3ccccc3[nH]1)CC2)C1[C@H]2CNC[C@@H]12` (stereo partly drawn) [Example 360, (1R,5S,6S)—N-[5-(1H-indole-2-carbonyl)-4H,5H,6H,7H-[1,3]thiazolo[5,4-c]pyridin-2-yl]-3-azabicyclo[3.1.0]hexane-6-carboxamide], in the data set with HBV, the concentration for a half-maximal effect (EC50) is less than 1 µM. For the same compound, the CC50 in the data set on HepAD38 cells is greater than 10 µM. The IC50 at HBV core protein (setting [1]) is less than 5 µM.
Taken in the same sequence, the figures for `O=C(c1cc2ccccc2[nH]1)N1CCc2nc(N[C@H]3C[C@H](O)C3)sc2C1` [Example 397, (1r,3r)-3-{[5-(1H-indole-2-carbonyl)-4H,5H,6H,7H-[1,3]thiazolo[5,4-c]pyridin-2-yl]amino}cyclobutan-1-ol] were less than 1 µM, greater than 10 µM and less than 5 µM.
Take `O=C(c1cc2ccc(Cl)cc2[nH]1)N1CCc2nc(N[C@H]3C[C@H](O)C3)sc2C1` [Example 357, (1r,3r)-3-{[5-(6-chloro-1H-indole-2-carbonyl)-4H,5H,6H,7H-[1,3]thiazolo[5,4-c]pyridin-2-yl]amino}cyclobutan-1-ol]: in the data set with HBV, the EC50 was less than 1 µM. Also, the CC50 in the data set on HepAD38 cells is greater than 10 µM. Besides, at HBV core protein (setting [1]), the half-maximal inhibitory concentration (IC50) was less than 5 µM.
For the compound “tert-butyl 3-{[5-(1H-indole-2-carbonyl)-4H,5H,6H,7H-[1,3]thiazolo[5,4-c]pyridin-2-yl]carbamoyl}azetidine-1-carboxylate [Example 387]”, the EC50 in the data set on HBV is less than 1 µM. In addition, the half-maximal cytotoxic concentration (CC50) with HepAD38 cells was greater than 10 µM.
Consider `O=C(c1cc2ccccc2[nH]1)N1CCc2nc(N[C@H]3C[C@@H](O)C3)sc2C1` [Example 388, (1s,3s)-3-{[5-(1H-indole-2-carbonyl)-4H,5H,6H,7H-[1,3]thiazolo[5,4-c]pyridin-2-yl]amino}cyclobutan-1-ol], for which, in the data set on HBV, the half-maximal effective concentration (EC50) is less than 1 µM. Besides, the CC50 in the data set with HepAD38 cells is greater than 10 µM.
With “(2S)-2-amino-3-{[5-(1H-indole-2-carbonyl)-4H,5H,6H,7H-[1,3]thiazolo[5,4-c]pyridin-2-yl]carbamoyl}propanoic acid [Example 444]”, the EC50 with HBV was less than 1 µM. For the same compound, in the data set with HepAD38 cells, the cytotoxic concentration (CC50) is greater than 10 µM. In addition, the half-inhibitory concentration (IC50) at HBV core protein (setting [1]) lay within 5 to 10 µM.
In the case of `O=C(c1cc2c(F)c(F)ccc2[nH]1)N1CCc2nc(N[C@H]3CC[C@@H](O)CC3)sc2C1` [Example 395, (1s,4s)-4-{[5-(4,5-difluoro-1H-indole-2-carbonyl)-4H,5H,6H,7H-[1,3]thiazolo[5,4-c]pyridin-2-yl]amino}cyclohexan-1-ol], in the data set with HBV, the concentration giving a half-maximal response (EC50) was less than 1 µM. In addition, in the data set on HepAD38 cells, the CC50 was greater than 10 µM. Also, the IC50 at HBV core protein (setting [1]) is less than 5 µM.
`O=C(c1cc2c(Cl)cccc2[nH]1)N1CCc2nc(N[C@H]3C[C@H](O)C3)sc2C1` [Example 381, (1r,3r)-3-{[5-(4-chloro-1H-indole-2-carbonyl)-4H,5H,6H,7H-[1,3]thiazolo[5,4-c]pyridin-2-yl]amino}cyclobutan-1-ol]: in the data set on HBV, the EC50 was less than 1 µM. For the same compound, the cytotoxic concentration (CC50) in the data set on HepAD38 cells was greater than 10 µM.
With “(2S)-2-amino-4-{[5-(1H-indole-2-carbonyl)-4H,5H,6H,7H-[1,3]thiazolo[5,4-c]pyridin-2-yl]carbamoyl}butanoic acid [Example 354]”, the EC50 with HBV was less than 1 µM. For the same compound, the CC50 in the data set on HepAD38 cells is greater than 10 µM. In addition, the concentration for half-maximal inhibition (IC50) at HBV core protein (setting [1]) is less than 5 µM.
`O=C(c1cc2c(F)cc(F)cc2[nH]1)N1CCc2nc(N[C@H]3C[C@H](O)C3)sc2C1` [Example 378, (1r,3r)-3-{[5-(4,6-difluoro-1H-indole-2-carbonyl)-4H,5H,6H,7H-[1,3]thiazolo[5,4-c]pyridin-2-yl]amino}cyclobutan-1-ol]: the EC50 in the data set with HBV was less than 1 µM. Further, in the data set with HepAD38 cells, the CC50 was greater than 10 µM.
Taken in the same sequence, the figures for `CCc1cc(F)cc2[nH]c(C(=O)N3CCc4nc(N[C@H]5C[C@H](O)C5)sc4C3)cc12` [Example 376, (1r,3r)-3-{[5-(4-ethyl-6-fluoro-1H-indole-2-carbonyl)-4H,5H,6H,7H-[1,3]thiazolo[5,4-c]pyridin-2-yl]amino}cyclobutan-1-ol] were less than 1 µM and greater than 10 µM.
As for `CC(C)(C)OC(=O)N1CCC(CNc2nc3c(s2)CN(C(=O)c2cc4ccccc4[nH]2)CC3)C1` (centres unmarked) [Example 392, tert-butyl 3-({[5-(1H-indole-2-carbonyl)-4H,5H,6H,7H-[1,3]thiazolo[5,4-c]pyridin-2-yl]amino}methyl)pyrrolidine-1-carboxylate], in the data set on HBV (Hepatitis B virus, 144 h), the EC50 is less than 1 µM. For the same compound, the IC50 at HBV core protein (setting [2]) was less than 5 µM.
With `O=C(c1cc2ccccc2[nH]1)N1CCc2nc(NCC3(CO)CC3)sc2C1` [Example 87, [1-({[5-(1H-indole-2-carbonyl)-4H,5H,6H,7H-[1,3]thiazolo[5,4-c]pyridin-2-yl]amino}methyl)cyclopropyl]methanol], in the data set on HBV (Hepatitis B virus, 144 h), the EC50 was less than 1 µM. Further, the IC50 on HBV core protein (setting [2]) is less than 5 µM.
With `O=C(Nc1nc2c(s1)CN(C(=O)c1cc3c(C(F)F)cccc3[nH]1)CC2)C1CCOCC1` [Example 400, N-{5-[4-(difluoromethyl)-1H-indole-2-carbonyl]-4H,5H,6H,7H-[1,3]thiazolo[5,4-c]pyridin-2-yl}oxane-4-carboxamide], the 50% effective concentration (EC50) in the data set on HBV (Hepatitis B virus, 144 h) was less than 1 µM. In addition, on HBV core protein (setting [2]), the 50% inhibitory concentration (IC50) is less than 5 µM.
For the compound `O=C(c1cc2ccccc2[nH]1)N1CCc2nc(NCC3CNCCO3)sc2C1` (centres unmarked) [Example 260, 5-(1H-indole-2-carbonyl)-N—[(morpholin-2-yl)methyl]-4H,5H,6H,7H-[1,3]thiazolo[5,4-c]pyridin-2-amine], in the data set with HBV (Hepatitis B virus, 144 h), the 50% effective concentration (EC50) lay within 1 to 10 µM. In addition, the IC50 on HBV core protein (setting [2]) is less than 5 µM.
As to `Nc1nc2c(s1)CN(C(=O)c1cc3ccc(Br)cc3[nH]1)CC2` [Example 92, 5-(6-bromo-1H-indole-2-carbonyl)-4H,5H,6H,7H-[1,3]thiazolo[5,4-c]pyridin-2-amine], the EC50 with HBV (Hepatitis B virus, 144 h) is less than 1 µM. In addition, the 50% inhibitory concentration (IC50) at HBV core protein (setting [2]) is less than 5 µM.

For orientation: EC50 means the concentration needed to bring the measured effect to its halfway point. What is called CC50 is the concentration giving 50% cytotoxicity. A word on the IC50: it is the midpoint of a concentration-inhibition curve.
